In patent US9962402B2, “Healing composition for topical application” (BIOPASS S.A., priority 2011, dated 2018):
“Also recorded” adds a separate entry of the source.

Test system: wound healing
Experiment: Effect on wound healing (discovered in the context of the invention, no method given)
Assay type: in vivo
Conditions: present in a gel

Question: With CCOCCOCCO [ethoxydiglycol] as the molecule, how does the “effect on wound healing” value read?
Answer: The value was “significantly slows wound healing; also recorded: significantly delays wound healing”.
